Key:
[1] = administration of D-BHB, D-BHV and D-1,3BD in various ratios to human subjects at rest: circulating ketones and ketotic efficiency; format: in vivo; settings: for Max change in mMol/L (increase in circulating ketone level): 10 g dose, three human subjects at rest; for 1 hour ketotic efficiency: 1 hour post-administration; for 1 hour ketotic efficiency / 2 hours ketotic efficiency: subject at rest; for 2 hours ketotic efficiency: 2 hours post-administration; for prolonged rise of blood ketone levels / sustained ketonemia: based on measured plasma levels of FIG. 1, subject at rest; for ketotic efficiency, rank in words: both 1 and 2 hours post-administration
Protocol: The administration of examples presented herein result in an increase in the circulating level of ketones in a human subject at rest that is greater than would result from the administration of (D)-β-hydroxybutyrate or (D)-1,3 butanediol alone over a duration of, for example, 120 minutes. Preferred examples include administration of a combination of D-BHB, D-BHV, and D-1,3BD in a therapeutically effective amount such that the rate change of circulating ketones in the blood of a human subject at rest is faster than the administration of an equivalent amount of either D-BHB or D-1,3BD administered alone. In one example, this includes the administration of a composition including a mixture of 43.2%% D-BHB, 1.8% D-BHV and 55% D-1,3BD. In another example, this includes the administration of a composition including a mixture of 52.8% DBHB, 2.2% D-BHV, and 45% D-1,3BD. In another example, this includes the administration of at composition including a mixture of 62.4% D-BHB, 2.6% D-BHV, and 35% D-1,3BD.
Examples include using a composition including D-BHB, D-BHV, and D-1,3BD in a subject at rest. The ketotic efficiency represents the net elevation of circulating ketones a ketone supplement affects over time in an individual. Ketotic efficiency may be represented as:
[formula] where mMol/L is the concentration of circulating 3-hydroxybutyrate in the blood, g is the total dose of the combined D-BHB, D-BHV, and D-1,3,BD in grams, kg is the mass of the individual in kilograms, and t is an increment of time in minutes.
While this example pertains to a fasted subject at rest, the relative utility of blended vs pure constituents has also been observed in fed and active subjects.
As illustrated by the examples of FIG. 1, these exemplary compositions can advantageously elevate circulating ketones by approximately two times greater than other known compositions. Such a composition can sustain ketonemia for longer than either D-BHB or D-1,3BD can when ingested alone by a subject of a given weight as shown by the 100% line (i.e., contains D-BHB, but not D-1,3BD) and the 0% line (i.e., contains only D-1,3BD, but not D-BHB).
As shown in the following table, the increase in circulating ketone level with a 10 g dose in three human subjects at rest was maximal at between 45-55% D-BHB in the tested compositions. […]

[2] = similar to lemon juice; cited from earlier work

| SMILES | Max change in mMol/L (increase in circulating ketone level) [1] [mmol/L] | 1 hour ketotic efficiency [1] [kg·mmol·min/g/L] | 2 hours ketotic efficiency [1] [kg·mmol·min/g/L] | prolonged rise of blood ketone levels / sustained ketonemia [1] | ketotic efficiency, rank in words [1] | pH [2] |
| --- | --- | --- | --- | --- | --- | --- |
| CC(O)CC(=O)O (stereo not drawn) [100%, (D)-β-hydroxybutyric acid] | 0.9 | 335 | 566 | A similar result | lowest efficiency | 2.5 |
| CC(O)CCO (centres unmarked) [0%, (D)-1,3 butanediol] | 0.8 | 266 | 462 | does not cause a prolonged rise of blood ketone levels | lowest efficiency | – |
